Active and inactive are the calls of the source. Some results are limits rather than exact numbers.

For 7 compounds, IC50, AC50 and EC50 results are on record in ChEMBL document CHEMBL1201862, “PubChem BioAssay data set” (2004).

Assay [1] deals with T1, Rac GTPase-activating protein 1 (Homo sapiens, UniProt Q9H0H5).
T1 sequence (Q9H0H5 whole entry): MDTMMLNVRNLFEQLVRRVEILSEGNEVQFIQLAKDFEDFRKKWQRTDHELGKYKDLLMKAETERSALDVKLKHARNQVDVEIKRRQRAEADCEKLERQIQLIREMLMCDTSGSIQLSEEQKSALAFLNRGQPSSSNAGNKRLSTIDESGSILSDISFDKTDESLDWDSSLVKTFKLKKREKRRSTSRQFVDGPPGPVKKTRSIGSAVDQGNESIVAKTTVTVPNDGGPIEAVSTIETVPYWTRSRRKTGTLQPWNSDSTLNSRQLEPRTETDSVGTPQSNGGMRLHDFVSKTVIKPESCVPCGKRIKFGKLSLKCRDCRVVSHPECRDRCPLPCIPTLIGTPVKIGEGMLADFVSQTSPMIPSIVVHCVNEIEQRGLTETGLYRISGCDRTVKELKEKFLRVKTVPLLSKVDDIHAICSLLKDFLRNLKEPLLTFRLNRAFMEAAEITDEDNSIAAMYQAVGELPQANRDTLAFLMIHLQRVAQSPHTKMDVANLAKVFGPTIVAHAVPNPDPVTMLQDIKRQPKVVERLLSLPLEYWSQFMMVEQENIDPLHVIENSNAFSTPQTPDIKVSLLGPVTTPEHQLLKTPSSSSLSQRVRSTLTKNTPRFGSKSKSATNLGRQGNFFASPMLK
Description: blockers of MgcRacGAP-driven Rac1 GTP hydrolysis – biochemical, ADP Hunter fluorescence, primary and confirmatory, confirmation (AID 624330). It counts as functional.

For assay [2], the target named is T2, Histone-lysine N-methyltransferase NSD2 (Homo sapiens, UniProt O96028).
T2 sequence (O96028 whole entry): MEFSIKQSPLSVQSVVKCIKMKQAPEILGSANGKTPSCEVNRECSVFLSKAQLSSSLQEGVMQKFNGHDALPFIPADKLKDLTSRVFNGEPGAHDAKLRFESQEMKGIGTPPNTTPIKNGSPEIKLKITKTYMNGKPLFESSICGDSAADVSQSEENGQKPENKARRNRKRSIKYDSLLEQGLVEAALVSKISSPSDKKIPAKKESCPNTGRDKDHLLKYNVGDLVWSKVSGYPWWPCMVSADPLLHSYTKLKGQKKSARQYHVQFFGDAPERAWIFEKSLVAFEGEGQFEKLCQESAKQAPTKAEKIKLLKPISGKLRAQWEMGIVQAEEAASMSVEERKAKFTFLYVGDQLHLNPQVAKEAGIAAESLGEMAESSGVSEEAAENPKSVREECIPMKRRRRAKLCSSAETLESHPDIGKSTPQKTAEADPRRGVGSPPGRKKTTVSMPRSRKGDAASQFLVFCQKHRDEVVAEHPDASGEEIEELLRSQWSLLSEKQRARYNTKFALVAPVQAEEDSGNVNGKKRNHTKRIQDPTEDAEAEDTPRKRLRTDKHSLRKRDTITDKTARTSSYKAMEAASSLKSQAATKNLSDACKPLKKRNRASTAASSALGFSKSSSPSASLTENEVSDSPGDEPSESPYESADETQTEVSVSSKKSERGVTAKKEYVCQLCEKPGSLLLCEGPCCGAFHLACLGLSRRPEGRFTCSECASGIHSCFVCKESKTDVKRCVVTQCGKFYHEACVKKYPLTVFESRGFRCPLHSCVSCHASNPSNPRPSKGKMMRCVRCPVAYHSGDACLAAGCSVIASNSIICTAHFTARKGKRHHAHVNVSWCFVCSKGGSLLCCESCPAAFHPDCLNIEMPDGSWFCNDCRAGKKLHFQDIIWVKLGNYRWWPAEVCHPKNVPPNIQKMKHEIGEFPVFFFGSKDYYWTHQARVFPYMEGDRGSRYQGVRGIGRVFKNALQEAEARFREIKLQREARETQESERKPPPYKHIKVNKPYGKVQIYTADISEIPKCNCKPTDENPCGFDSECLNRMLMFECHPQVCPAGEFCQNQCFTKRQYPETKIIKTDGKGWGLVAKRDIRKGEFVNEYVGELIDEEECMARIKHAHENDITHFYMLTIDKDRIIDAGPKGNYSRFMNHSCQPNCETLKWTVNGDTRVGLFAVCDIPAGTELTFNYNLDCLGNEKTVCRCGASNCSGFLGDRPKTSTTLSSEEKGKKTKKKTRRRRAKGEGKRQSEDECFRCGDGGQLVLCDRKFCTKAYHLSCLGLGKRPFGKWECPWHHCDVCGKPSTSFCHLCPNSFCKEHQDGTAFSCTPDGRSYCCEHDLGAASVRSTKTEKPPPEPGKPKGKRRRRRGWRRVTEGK
In kind it is biochemical.

A further assay addresses Albumin (Bos taurus, UniProt P02769). As to the kind of experiment: Counterscreen for inhibitors of T-cell receptor (TCR)-CD3 interaction: Fluorescence-based biochemical high throughput dose response assay to identify inhibitors of T-cell receptor (TCR)-CD3 interaction using a TAMRA-labeled BSA probe. In kind it is functional. In general terms: A counterscreen serves to expose hits that act by an unwanted route or on another target.

The nature of assay [3]: viability loss in HEK293T cells – cell-based, cherry-picks, cytotoxicity control for HIV Vif inhibitor project, dose response (AID 652208). In kind it is functional.
The nature of assay [4]: T. cruzi growth inhibition in host cells, dose response, cell-based, plate reader, dry powder, set 2 (AID 652275). In kind it is functional.
Assay [5] concerns the target T3, DNA repair and recombination protein RAD54-like (Homo sapiens, UniProt Q92698).
T3 sequence (Q92698 whole entry): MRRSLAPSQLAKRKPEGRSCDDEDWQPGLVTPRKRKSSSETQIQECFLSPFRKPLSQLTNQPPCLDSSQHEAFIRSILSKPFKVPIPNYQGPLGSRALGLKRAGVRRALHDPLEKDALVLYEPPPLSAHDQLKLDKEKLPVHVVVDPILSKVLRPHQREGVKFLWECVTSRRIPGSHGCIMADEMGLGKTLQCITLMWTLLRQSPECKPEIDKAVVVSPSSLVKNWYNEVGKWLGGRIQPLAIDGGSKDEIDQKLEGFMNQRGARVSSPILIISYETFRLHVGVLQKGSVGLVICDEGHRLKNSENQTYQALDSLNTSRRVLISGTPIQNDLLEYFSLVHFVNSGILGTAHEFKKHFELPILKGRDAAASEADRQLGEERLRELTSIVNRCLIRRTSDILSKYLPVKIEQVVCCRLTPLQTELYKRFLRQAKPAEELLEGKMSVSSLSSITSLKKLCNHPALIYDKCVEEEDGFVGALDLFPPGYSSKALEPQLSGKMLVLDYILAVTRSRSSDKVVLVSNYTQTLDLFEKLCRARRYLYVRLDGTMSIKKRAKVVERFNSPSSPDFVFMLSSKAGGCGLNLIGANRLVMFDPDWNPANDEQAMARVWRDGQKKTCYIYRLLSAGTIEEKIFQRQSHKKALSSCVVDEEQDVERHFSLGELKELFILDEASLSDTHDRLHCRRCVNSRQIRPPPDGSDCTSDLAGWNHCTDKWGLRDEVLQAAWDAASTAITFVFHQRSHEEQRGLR
As to the kind of experiment: RAD54 Holliday junction migration blockers – biochemical, fluorescence, cherry-picked samples, dose series, confirmation (AID 651657). In kind it is functional.

Assay [6] concerns the target T4, Short transient receptor potential channel 4 (Mus musculus, UniProt Q9QUQ5).
T4 sequence (Q9QUQ5 whole entry): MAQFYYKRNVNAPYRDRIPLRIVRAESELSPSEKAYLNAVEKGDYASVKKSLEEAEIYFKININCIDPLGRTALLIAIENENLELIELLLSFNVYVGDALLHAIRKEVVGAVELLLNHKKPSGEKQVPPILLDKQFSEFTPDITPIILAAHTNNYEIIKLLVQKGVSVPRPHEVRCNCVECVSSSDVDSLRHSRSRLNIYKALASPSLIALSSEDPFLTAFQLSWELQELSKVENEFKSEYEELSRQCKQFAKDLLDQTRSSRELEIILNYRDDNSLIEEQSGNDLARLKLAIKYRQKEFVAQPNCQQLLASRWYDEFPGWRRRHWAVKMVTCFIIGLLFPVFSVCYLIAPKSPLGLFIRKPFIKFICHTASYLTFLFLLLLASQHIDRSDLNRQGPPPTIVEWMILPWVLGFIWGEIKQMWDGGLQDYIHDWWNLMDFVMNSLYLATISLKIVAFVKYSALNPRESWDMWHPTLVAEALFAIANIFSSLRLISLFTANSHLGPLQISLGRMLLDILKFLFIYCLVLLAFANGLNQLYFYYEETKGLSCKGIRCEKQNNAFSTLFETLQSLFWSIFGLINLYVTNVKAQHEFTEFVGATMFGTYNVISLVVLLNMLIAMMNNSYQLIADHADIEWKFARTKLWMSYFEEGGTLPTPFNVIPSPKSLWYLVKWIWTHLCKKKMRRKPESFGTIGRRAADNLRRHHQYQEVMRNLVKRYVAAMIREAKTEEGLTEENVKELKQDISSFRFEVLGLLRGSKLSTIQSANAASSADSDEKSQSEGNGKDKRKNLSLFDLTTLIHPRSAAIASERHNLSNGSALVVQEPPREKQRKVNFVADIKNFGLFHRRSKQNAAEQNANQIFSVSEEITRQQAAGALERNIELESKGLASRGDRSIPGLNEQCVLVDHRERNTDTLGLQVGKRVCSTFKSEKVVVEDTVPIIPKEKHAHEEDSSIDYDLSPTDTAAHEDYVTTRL
Description: block of DAMGO-driven TRPC4 calcium entry – cell-based, HEK293 TRPC4/mu-opioid, Fluo-4 calcium, dose response (AID 434942).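 Further: potency of inhibitors blocking the TRPC4 calcium response.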 It counts as functional.

The target in assay [7] is T5, Corticotropin-releasing factor receptor 2/Corticotropin-releasing factor-binding protein (Homo sapiens, UniProt P24387+Q13324).
T5 sequence (Q13324 whole entry): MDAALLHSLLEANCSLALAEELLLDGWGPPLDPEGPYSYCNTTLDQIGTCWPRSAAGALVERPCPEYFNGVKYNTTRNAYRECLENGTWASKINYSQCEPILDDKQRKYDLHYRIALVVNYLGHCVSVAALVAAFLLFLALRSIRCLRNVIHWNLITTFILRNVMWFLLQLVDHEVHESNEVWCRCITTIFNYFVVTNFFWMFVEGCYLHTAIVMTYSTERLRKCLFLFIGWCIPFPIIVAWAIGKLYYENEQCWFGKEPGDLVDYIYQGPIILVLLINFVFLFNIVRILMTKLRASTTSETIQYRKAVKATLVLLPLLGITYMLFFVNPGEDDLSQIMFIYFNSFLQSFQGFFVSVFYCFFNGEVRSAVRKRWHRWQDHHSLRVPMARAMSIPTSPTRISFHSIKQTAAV
T5 sequence (P24387 whole entry): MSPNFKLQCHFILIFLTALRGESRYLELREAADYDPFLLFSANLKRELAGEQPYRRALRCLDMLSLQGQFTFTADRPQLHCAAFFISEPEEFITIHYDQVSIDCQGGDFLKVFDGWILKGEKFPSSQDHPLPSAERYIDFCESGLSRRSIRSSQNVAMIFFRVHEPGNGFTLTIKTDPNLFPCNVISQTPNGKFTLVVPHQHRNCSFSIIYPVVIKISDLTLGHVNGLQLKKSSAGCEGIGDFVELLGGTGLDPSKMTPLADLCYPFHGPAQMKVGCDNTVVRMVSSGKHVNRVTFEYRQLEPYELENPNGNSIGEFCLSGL
Description: activators of CRF receptor 2 with binding protein – uHTS hits, confirmation (AID 602473). It counts as functional. To be noted: read-out: EC50_Mean.

In assay [8] the target is T5, Corticotropin-releasing factor receptor 2/Corticotropin-releasing factor-binding protein. As to the kind of experiment: Dose Response confirmation of uHTS hits for small molecule antagonists of the CRF-binding protein and CRF-R2 receptor complex. The settings on record: read-out: IC50_Mean. In kind it is functional.

Sequence of Albumin (P02769 whole entry): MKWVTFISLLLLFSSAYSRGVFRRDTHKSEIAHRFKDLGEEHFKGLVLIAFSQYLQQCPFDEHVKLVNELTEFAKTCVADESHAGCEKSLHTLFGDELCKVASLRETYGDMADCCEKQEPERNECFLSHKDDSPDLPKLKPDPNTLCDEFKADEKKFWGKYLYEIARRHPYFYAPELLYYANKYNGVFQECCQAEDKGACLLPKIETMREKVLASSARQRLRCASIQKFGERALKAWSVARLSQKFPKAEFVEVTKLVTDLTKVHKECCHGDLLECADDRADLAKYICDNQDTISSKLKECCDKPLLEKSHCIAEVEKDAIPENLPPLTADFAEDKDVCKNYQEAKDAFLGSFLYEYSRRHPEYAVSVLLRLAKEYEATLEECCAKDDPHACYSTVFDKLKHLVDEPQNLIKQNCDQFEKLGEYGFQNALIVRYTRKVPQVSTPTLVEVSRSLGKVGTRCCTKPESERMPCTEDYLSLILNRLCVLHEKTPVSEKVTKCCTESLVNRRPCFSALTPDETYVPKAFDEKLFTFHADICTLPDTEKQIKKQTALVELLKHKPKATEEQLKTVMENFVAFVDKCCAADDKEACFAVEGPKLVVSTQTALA

On to `CN(C)C=O.O=C(O)c1ccccc1NS(=O)(=O)c1ccc(N/N=C/c2ccc(O)c(O)c2)c([N+](=O)[O-])c1`, for which the figures for the IC50 (in [1]; on Albumin) were 60.7 µM (active) and > 94.1 µM (inactive), respectively. The AC50 in assay [2] is 1.71 µM (active). Regarding `O=C(COc1ccc(-n2cnnn2)cc1)Nc1cc(Cl)cc(Cl)c1`, in assay [3], the AC50 was 18.1 µM (active). Consider `COCC(=O)N1CCCCN2[C@@H](CO)[C@H](c3ccc(-c4cccc(C)c4)cc3)[C@@H]2C1`, for which, in [4], the AC50 is 1.42 µM (active). The same measure, in the same setting: to `COC[C@H](C)N1C[C@H](C)[C@@H](CN(C)Cc2ccc(Cl)cc2)Oc2c(NC(=O)c3ccncc3)cccc2C1=O` belongs 0.00139 µM (active); to `O=C(c1ccncc1)N1CCCCN2[C@@H](CO)[C@H](c3ccc(-c4ccccc4)cc3)[C@@H]2C1`, 4.5 µM (active).

As for `Cc1ccc2nc(C)cc(Nc3ccc4c(c3)OCCO4)c2c1`, the AC50 in assay [5] was 37.2 µM (active). Further, in assay [6], the EC50 was 2.99 µM (active). Consider `Cc1ccc(-c2cc(C(=O)NCc3ccccn3)c3ccccc3n2)cc1C`, for which, in [7], the EC50 is > 53 µM (inactive). Moreover, the AC50 in [3] is 32.7 µM (active). For the same compound, the IC50 in [8] was > 47.1 µM (inactive).

Broadly, the AC50 is the concentration at which the activity in the assay is half-maximal.
